We go through one molecule from PMC4988473, “Evaluation of Three Amorphous Drug Delivery Technologies to Improve the Oral Absorption of Flubendazole” (Journal of Pharmaceutical Sciences, 2016).

The nature of one series: pKa of flubendazole. The class given is physicochemical.
A further series in a line: LogP of flubendazole. Type of series: physicochemical. From the text: (§1) Table 1 Physicochemical Properties of Flubendazole (FLU) | column: Value
The nature of series [1]: Apparent permeability (Papp). The class given is in vitro ADME. Conditions: not told, AB.
Description: as §1

The nature of series [2]: Solubility in ambient conditions. Type of series: physicochemical.
The next series relates to Onchocerca volvulus. Also on record: method as in PMID 6130195. Conditions: after 12 months of follow-up; 5 weekly injections; cited from earlier work.

≈ marks a conversion by molar mass, not a printed value. Like-named read-outs stand apart in the source and are kept apart here.

What is called pKa is the pH at which an ionisable group is half protonated. By logP is commonly meant the decadic logarithm of the partition coefficient of the neutral form, usually between octanol and water. As a reminder, the Papp is the rate of passage across a membrane or cell layer, normalised by area and donor concentration. The term solubility denotes the dissolved amount per volume that the medium holds. For the molecule `COC(=O)Nc1nc2cc(C(=O)c3ccc(F)cc3)ccc2[nH]1` [FLU, flubendazole], the results for the pKa in the series “pKa of flubendazole” and in “pKa of flubendazole” (carbamate group) were 9.6 and 3.6, respectively. This molecule had a logP in “LogP of flubendazole” of 3. Also, in series [1], the Papp at 10 μM was determined as 33.8 ×10⁻⁶ cm/s. Further, the solubility turned out to be 180 µg/mL (≈ 0.575 mM) in series [2] (acetone, organic solvent or mixture, read-out: Solubility in acetone); 140 µg/mL (≈ 0.447 mM) in series [2] (dichloromethane, organic solvent or mixture, read-out: Solubility in dichloromethane); 340000 µg/mL (≈ 1090 mM) in series [2] (formic acid, organic solvent or mixture, read-out: Solubility in formic acid); 110 µg/mL (≈ 0.351 mM) in series [2] (methanol, organic solvent or mixture, read-out: Solubility in methanol); 5 µg/mL (≈ 0.016 mM) in series [2] (water, read-out: Solubility in water). Also, the “Activity against Onchocerca volvulus compared with diethylcarbamazine” value in the series with Onchocerca volvulus is “superior activity”.
